In patent US20260070945A1, “MACROCYCLIC IMMUNOMODULATORS” (Bristol-Myers Squibb Company, priority 2022, published 2026) one finds IC50 data, which are given here for twelve compounds.

Structures are written as SMILES. Where a SMILES comes first, the peptide text is derived from it. Bridges are numbered along the chain shown (N, C = ends). [ ]: non-standard residue; d: D form. The star is where a group is joined. ξ: configuration not given here. Phe(4-COOH) = N[C@@H](Cc1ccc(C(=O)O)cc1)C(=O)O; Bip = N[C@@H](Cc1ccc(-c2ccccc2)cc1)C(=O)O; Phe(3-Me) = Cc1cccc(C[C@H](N)C(=O)O)c1; Val(3-OH) = CC(C)(O)[C@H](N)C(=O)O; 4Pal = N[C@@H](Cc1ccncc1)C(=O)O; Cha = N[C@@H](CC1CCCCC1)C(=O)O; Cit = NC(=O)NCCC[C@H](N)C(=O)O; Ile(3ξ) = CCC(C)[C@H](N)C(=O)O; Carboxymethyl = O=C(O)C*; NMeA = CN[C@@H](C)C(=O)O; Orn = NCCC[C@H](N)C(=O)O; Aun = NCCCCCCCCCCC(=O)O; Dab = NCC[C@H](N)C(=O)O; AEEA = NCCOCCOCC(=O)O

T1 sequence (Q15116 25-288): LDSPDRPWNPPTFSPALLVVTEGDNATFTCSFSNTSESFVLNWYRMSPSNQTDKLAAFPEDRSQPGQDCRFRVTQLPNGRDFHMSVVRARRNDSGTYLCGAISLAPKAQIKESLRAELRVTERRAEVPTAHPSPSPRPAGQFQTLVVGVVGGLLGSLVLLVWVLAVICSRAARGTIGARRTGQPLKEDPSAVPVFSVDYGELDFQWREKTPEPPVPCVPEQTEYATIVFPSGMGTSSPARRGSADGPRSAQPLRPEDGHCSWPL

The test addresses T1, PD-1/PD-L1 interaction (PE-labeled human PD-L1-Ig binding to Jurkat cell line over-expressing human PD-1) (Homo sapiens, UniProt Q15116).
T1 construct: expressed in transfected cells; host or cells: Jurkat
As to the kind of experiment: Jurkat-PD-1 Cell Binding High-Content Screening Assay (CBA). Particulars: Jurkat-hPD-1 cells, PE-labeled PD-L1-Ig 20 nM final; read-out: Jurkat HPD1 PDL1 IC50. The essentials: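 In this imaging assay, cells in 10% FCS medium see compound for 2 h at 37 °C and then labeled ligand at 20 nM final for 1 h. Paraformaldehyde fixation, Hoechst 33342 staining and dPBS washes precede image capture.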
Broadly, the IC50 is the concentration that inhibits the measured activity by half. `CC(C)C[C@H]1NC(=O)[C@H](C)N(C)C(=O)[C@H](Cc2ccc(OCC(=O)O)cc2)NC(=O)[C@H](Cc2ccc(-c3ccccc3)cc2)NC(=O)[C@H](Cc2ccc(OCC(=O)O)cc2)NC(=O)[C@H](Cc2c[nH]c3ccccc23)NC(=O)[C@H](CC(=O)O)NC(=O)[C@H](Cc2ccc(OCC(=O)O)cc2)NC(=O)[C@H]([C@@H](C)O)NC(=O)CSC[C@@H](C(=O)N[C@@H](CCN)C(=O)NCCOCCOCC(=O)NCCCCCCCCCCC(=O)O)NC(=O)[C@H](CC(N)=O)NC(=O)[C@H](C(C)C)NC(=O)[C@H](CC2CCCCC2)NC(=O)[C@H](CCC(=O)O)NC1=O` [Example 1401] ({CH2CO}-TY(Carboxymethyl)DWY(Carboxymethyl)[Bip]Y(Carboxymethyl)[NMeA][dL]E[Cha]VNC[Dab][AEEA][Aun]-OH; thioether N-14): the IC50 was determined as 63.9 nM.
Next, `Cc1cccc(C[C@@H]2NC(=O)[C@H](CC(=O)O)NC(=O)[C@H](Cc3ccc(OCC(=O)O)cc3)NC(=O)[C@@H]([C@H](C)O)NC(=O)CSC[C@@H](C(=O)NCCOCCOCC(=O)NCCCCCCCCCCC(=O)O)NC(=O)[C@H]([C@@H](C)O)NC(=O)[C@H](C(C)C)NC(=O)[C@H](CC3CCCCC3)NC(=O)[C@H](CCN)NC(=O)[C@@H](CC(C)C)NC(=O)[C@H](C)N(C)C(=O)[C@H](CCCNC(N)=O)NC(=O)[C@H](Cc3ccc(-c4ccccc4)cc3)NC(=O)[C@H](C(C)C)NC2=O)c1` [Example 1402] ({CH2CO}-[dT]Y(Carboxymethyl)D[Phe(3-Me)]V[Bip][Cit][NMeA][dL][Dab][Cha]VTC[AEEA][Aun]-OH; thioether N-14): 203 nM; `Cc1cccc(C[C@@H]2NC(=O)[C@H](CC(=O)O)NC(=O)[C@H](Cc3ccc(OCC(=O)O)cc3)NC(=O)[C@H]([C@@H](C)O)NC(=O)CSC[C@@H](C(=O)NCCOCCOCC(=O)NCCCCCCCCCCC(=O)O)NC(=O)[C@H](CO)NC(=O)[C@H](C(C)(C)O)NC(=O)[C@H](CC3CCCCC3)NC(=O)[C@H](CCN)NC(=O)[C@@H](CC(C)C)NC(=O)[C@H](C)N(C)C(=O)[C@H](CCCNC(N)=O)NC(=O)[C@H](Cc3ccc(-c4ccccc4)cc3)NC(=O)[C@H](C(C)C)NC2=O)c1` [Example 1403] ({CH2CO}-TY(Carboxymethyl)D[Phe(3-Me)]V[Bip][Cit][NMeA][dL][Dab][Cha][Val(3-OH)]SC[AEEA][Aun]-OH; thioether N-14): 5 nM; `Cc1cccc(C[C@@H]2NC(=O)[C@H](CC(=O)O)NC(=O)[C@H](Cc3ccc(C(=O)O)cc3)NC(=O)[C@H](Cc3ccncc3)NC(=O)CSC[C@@H](C(=O)N[C@@H](CCN)C(=O)NCCOCCOCC(=O)NCCCCCCCCCCC(=O)O)NC(=O)[C@H](CCCN)NC(=O)[C@H](C(C)C)NC(=O)[C@H](CC3CCCCC3)NC(=O)[C@H](CCN)NC(=O)[C@@H](CC(C)C)NC(=O)[C@H](C)N(C)C(=O)[C@H](CCCNC(N)=O)NC(=O)[C@H](Cc3ccc(-c4ccccc4)cc3)NC(=O)[C@H](Cc3ccc(C(=O)O)cc3)NC2=O)c1` [Example 1404] ({CH2CO}-[4Pal][Phe(4-COOH)]D[Phe(3-Me)][Phe(4-COOH)][Bip][Cit][NMeA][dL][Dab][Cha]V[Orn]C[Dab][AEEA][Aun]-OH; thioether N-14): 26.1 nM.
The figure for `Cc1cccc(C[C@@H]2NC(=O)[C@H](CC(=O)O)NC(=O)[C@H](Cc3ccc(C(=O)O)cc3)NC(=O)[C@H](Cc3ccncc3)NC(=O)CSC[C@@H](C(=O)N[C@@H](CCN)C(=O)NCCOCCOCC(=O)NCCCCCCCCCCC(=O)O)NC(=O)[C@H](CCCN)NC(=O)[C@H](C(C)C)NC(=O)[C@H](CC3CCCCC3)NC(=O)[C@H](CCN)NC(=O)[C@@H](CC(C)C)NC(=O)[C@H](C)N(C)C(=O)[C@H](Cc3ccc(OCC(=O)O)cc3)NC(=O)[C@H](Cc3ccc(-c4ccccc4)cc3)NC(=O)[C@H](Cc3ccc(OCC(=O)O)cc3)NC2=O)c1` [Example 1405] ({CH2CO}-[4Pal][Phe(4-COOH)]D[Phe(3-Me)]Y(Carboxymethyl)[Bip]Y(Carboxymethyl)[NMeA][dL][Dab][Cha]V[Orn]C[Dab][AEEA][Aun]-OH; thioether N-14) is 23.6 nM.
Next, `Cc1cccc(C[C@@H]2NC(=O)[C@H](CC(=O)O)NC(=O)[C@H](Cc3ccc(C(=O)O)cc3)NC(=O)[C@H](Cc3ccncc3)NC(=O)CSC[C@@H](C(=O)N[C@@H](CCN)C(=O)NCCOCCOCC(=O)NCCCCCCCCCCC(=O)O)NC(=O)[C@H](CCCN)NC(=O)[C@H](C(C)C)NC(=O)[C@H](CC3CCCCC3)NC(=O)[C@H](CCN)NC(=O)[C@@H](CC(C)C)NC(=O)[C@H](C)N(C)C(=O)[C@H](CCCNC(N)=O)NC(=O)[C@H](Cc3ccc(-c4ccccc4)cc3)NC(=O)[C@H](Cc3ccc(OCC(=O)O)cc3)NC2=O)c1` [Example 1406] ({CH2CO}-[4Pal][Phe(4-COOH)]D[Phe(3-Me)]Y(Carboxymethyl)[Bip][Cit][NMeA][dL][Dab][Cha]V[Orn]C[Dab][AEEA][Aun]-OH; thioether N-14): 51.1 nM; `CCC(C)[C@@H]1NC(=O)[C@H](Cc2ccc(-c3ccccc3)cc2)NC(=O)[C@H](Cc2ccc(OCC(=O)O)cc2)NC(=O)[C@H](Cc2cccc(C)c2)NC(=O)[C@H](CC(=O)O)NC(=O)[C@H](Cc2ccc(C(=O)O)cc2)NC(=O)[C@H](Cc2ccncc2)NC(=O)CSC[C@@H](C(=O)N[C@@H](CCN)C(=O)NCCOCCOCC(=O)NCCCCCCCCCCC(=O)O)NC(=O)[C@H](CCCN)NC(=O)[C@H](C(C)C)NC(=O)[C@H](CC2CCCCC2)NC(=O)[C@H](CCN)NC(=O)[C@@H](CC(C)C)NC(=O)[C@H](C)N(C)C1=O` (stereo partly drawn) [Example 1407] ({CH2CO}-[4Pal][Phe(4-COOH)]D[Phe(3-Me)]Y(Carboxymethyl)[Bip][Ile(3ξ)][NMeA][dL][Dab][Cha]V[Orn]C[Dab][AEEA][Aun]-OH; thioether N-14): 89.9 nM; `Cc1cccc(C[C@@H]2NC(=O)[C@H](CC(=O)O)NC(=O)[C@H](Cc3ccc(OCC(=O)O)cc3)NC(=O)[C@H]([C@@H](C)O)NC(=O)CSC[C@@H](C(=O)N[C@@H](CCN)C(=O)NCCOCCOCC(=O)NCCCCCCCCCCC(=O)O)NC(=O)[C@H](CCC(=O)O)NC(=O)[C@H](C(C)(C)O)NC(=O)[C@H](CC3CCCCC3)NC(=O)[C@H](CCN)NC(=O)[C@@H](CC(C)C)NC(=O)[C@H](C)N(C)C(=O)[C@H](Cc3ccc(OCC(=O)O)cc3)NC(=O)[C@H](Cc3ccc(-c4ccccc4)cc3)NC(=O)[C@H](Cc3ccc(OCC(=O)O)cc3)NC2=O)c1` [Example 1408] ({CH2CO}-TY(Carboxymethyl)D[Phe(3-Me)]Y(Carboxymethyl)[Bip]Y(Carboxymethyl)[NMeA][dL][Dab][Cha][Val(3-OH)]EC[Dab][AEEA][Aun]-OH; thioether N-14): 28.9 nM.
As for `CCC(C)[C@@H]1NC(=O)[C@H](Cc2ccc(-c3ccccc3)cc2)NC(=O)[C@H](CC(C)C)NC(=O)[C@H](Cc2c[nH]c3ccccc23)NC(=O)[C@H](CC(=O)O)NC(=O)[C@H](Cc2ccc(C(=O)O)cc2)NC(=O)[C@H](Cc2ccc(OCC(=O)O)cc2)NC(=O)CSC[C@@H](C(=O)N[C@@H](CC(N)=O)C(=O)NCCOCCOCC(=O)NCCCCCCCCCCC(=O)O)NC(=O)[C@H](CO)NC(=O)[C@H](C(C)(C)O)NC(=O)[C@H](CC2CCCCC2)NC(=O)[C@H](CCN)NC(=O)[C@@H](CC(C)C)NC(=O)[C@H](C)N(C)C1=O` (stereo partly drawn) [Example 1409] ({CH2CO}-Y(Carboxymethyl)[Phe(4-COOH)]DWL[Bip][Ile(3ξ)][NMeA][dL][Dab][Cha][Val(3-OH)]SCN[AEEA][Aun]-OH; thioether N-14), the IC50 was 23.7 nM.
The figure for `CCC(C)[C@@H]1NC(=O)[C@H](Cc2ccc(-c3ccccc3)cc2)NC(=O)[C@H](CC(C)C)NC(=O)[C@H](Cc2c[nH]c3ccccc23)NC(=O)[C@H](CC(=O)O)NC(=O)[C@H](Cc2ccc(C(=O)O)cc2)NC(=O)[C@H](Cc2ccc(OCC(=O)O)cc2)NC(=O)CSC[C@@H](C(=O)N[C@@H](CCN)C(=O)NCCOCCOCC(=O)NCCCCCCCCCCC(=O)O)NC(=O)[C@H](CO)NC(=O)[C@H](C(C)(C)O)NC(=O)[C@H](CC2CCCCC2)NC(=O)[C@H](CCN)NC(=O)[C@@H](CC(C)C)NC(=O)[C@H](C)N(C)C1=O` (stereo partly drawn) [Example 1410] ({CH2CO}-Y(Carboxymethyl)[Phe(4-COOH)]DWL[Bip][Ile(3ξ)][NMeA][dL][Dab][Cha][Val(3-OH)]SC[Dab][AEEA][Aun]-OH; thioether N-14) is 16.2 nM; for `CC(C)C[C@@H]1NC(=O)[C@H](Cc2c[nH]c3ccccc23)NC(=O)[C@H](CC(=O)O)NC(=O)[C@H](Cc2ccc(C(=O)O)cc2)NC(=O)[C@H](Cc2ccc(OCC(=O)O)cc2)NC(=O)CSC[C@@H](C(=O)N[C@@H](CCN)C(=O)NCCOCCOCC(=O)NCCCCCCCCCCC(=O)O)NC(=O)[C@H](CO)NC(=O)[C@H](C(C)(C)O)NC(=O)[C@H](CC2CCCCC2)NC(=O)[C@H](CCN)NC(=O)[C@@H](CC(C)C)NC(=O)[C@H](C)N(C)C(=O)[C@H](C(C)C)NC(=O)[C@H](Cc2ccc(-c3ccccc3)cc2)NC1=O` [Example 1411] ({CH2CO}-Y(Carboxymethyl)[Phe(4-COOH)]DWL[Bip]V[NMeA][dL][Dab][Cha][Val(3-OH)]SC[Dab][AEEA][Aun]-OH; thioether N-14) it is 9.7 nM; for `Cc1cccc(C[C@@H]2NC(=O)[C@H](CC(=O)O)NC(=O)[C@H](Cc3ccncc3)NC(=O)[C@H](Cc3ccc(OCC(=O)O)cc3)NC(=O)CSC[C@@H](C(=O)N[C@@H](CCN)C(=O)NCCOCCOCC(=O)NCCCCCCCCCCC(=O)O)NC(=O)[C@H](CO)NC(=O)[C@H](C(C)(C)O)NC(=O)[C@H](CC3CCCCC3)NC(=O)[C@H](CCN)NC(=O)[C@@H](CC(C)C)NC(=O)[C@H](C)N(C)C(=O)[C@H](Cc3ccc(OCC(=O)O)cc3)NC(=O)[C@H](Cc3ccc(-c4ccccc4)cc3)NC(=O)[C@H](Cc3ccc(OCC(=O)O)cc3)NC2=O)c1` [Example 1412] ({CH2CO}-Y(Carboxymethyl)[4Pal]D[Phe(3-Me)]Y(Carboxymethyl)[Bip]Y(Carboxymethyl)[NMeA][dL][Dab][Cha][Val(3-OH)]SC[Dab][AEEA][Aun]-OH; thioether N-14) it is 207 nM.
